Assay results: US6211156A (priority 1999, dated 2001)

Test system: male rats
Details: rat, in vivo

Compound	effect on penile erections induced by 2 μg of the test peptides into the PVN	effect on test peptide induced penile erection	also measured
COC(=O)[C@@H](N)CCCNC(=N)N[N+](=O)[O-] [L-NAME, N^G -nitro-1-arginine methyl ester]	reduced in a dose dependent manner		
C[C@]12N[C@H](Cc3ccccc31)c1ccccc12 [MK 801, dizolcipine]		did not modify the penile erection	
OCCN1CCN(CC/C=C2/c3ccccc3Sc3ccc(C(F)(F)F)cc32)CC1 [cis-flupenthixol]		did not modify the penile erection	
CN1CC[C@]23c4c5ccc(O)c4O[C@H]2[C@@H](O)C=C[C@H]3[C@H]1C5 [morphine]	reduced in a dose-dependent manner		
ω-conotoxin-GVIA			effect on penile erection induced by 2 μg of the test peptides into the PVN: reduced penile erection
